Assay results: patent US8889861B2, “Crystalline forms of a purine derivative” (Cyclacel Limited, priority 2010, dated 2014)
≈ marks a conversion by molar mass, not a printed value. Where “and” joins values, the source holds several entries; their conditions need not be identical. Equal values may be shown once. Entries after “also recorded” stand apart in the source; their conditions may differ. Read-outs that look alike come from different tables or passages of the source.

Columns and labels:
[1] = Gravimetric vapour sorption (GVS) / hygroscopicity; type: physicochemical; conditions: for mass increase (GVS): 25° C., 40-90% RH; for reversible uptake of water from 0 to 90% RH: GVS
Method: Gravimetric Vapour Sorption (GVS)
Sorption isotherms were obtained using a SMS DVS Intrinsic moisture sorption analyser, controlled by SMS Analysis Suite software. […] The humidity was controlled by mixing streams of dry and wet nitrogen, with a total flow rate of 200 ml. min^−1. The relative humidity was measured by a calibrated Rotronic probe (dynamic range of 1.0-100% RH), located near the sample. The weight change, (mass relaxation) of the sample as a function of % RH was constantly monitored by the microbalance (accuracy ±0.005 mg). Typically 5-20 mg of sample was placed in a tared mesh stainless steel basket under ambient conditions. The sample was loaded and unloaded at 40% RH and 25° C. (typical room conditions). A moisture sorption isotherm was performed as outlined below (2 scans giving 1 complete cycle). The standard isotherm was performed at 25° C. at 10% RH intervals over a 0.5-90% RH range.
Method Parameters for SMS DVS Intrinsic Experiments:
The sample was recovered after completion of the isotherm and re-analysed by XRPD.
Hiden Isochema Moisture Sorption Analyser (IGAsorp)
Sorption isotherms were obtained using a Hiden Isochema Moisture Sorption Analyser (IGAsorp) controlled by IGAsorp Systems Software V6.50.48. […] The humidity was controlled by mixing streams of dry and wet nitrogen, with a total flow rate of 250 ml. min^−1. The instrument was verified for relative humidity content by measuring three calibrated Rotronic salt solutions (10-50-88%). The weight change of the sample as a function of % RH was monitored by microbalance (accuracy ±0.005 mg). A defined amount of sample was placed in a tared mesh stainless steel basket under ambient conditions. A full experimental cycle consisted of two scans (sorption and desorption) at a constant temperature (25° C.) and 10% RH intervals over a 10-90% RH range (90 minutes for each humidity level).
11.254 mg of sample was placed in a tarred mesh stainless steel basket under ambient conditions. A full experimental cycle consisted of two scans (sorption and desorption) at a constant temperature (25° C.) and 10% RH intervals over a 40-90% range (180 minutes for each humidity level). The mass increase of approximately 0.09 mg (−0.8%) and the facile uptake and loss relative to humidity level indicates a non-hygroscopic sample that dampens with surface moisture only.

[2] = Storage in a humidity chamber at 25° C. (75%, 94% or 97% RH); type: physicochemical; conditions: for observation on storage: 25° C./97% RH, time not stated
Method: However, a large proportion of the peaks corresponding to compound (I) appear as broadened multiplets, probably due to the presence of the sulfonic acid group, making successful assignment non-trivial. A significant quantity of residual TBME was also visible, though this is believed to be unbound solvent rather than a solvate. XRPD analysis confirmed the material to be crystalline. […] Deliquescence of a sample of the product was observed after storage in a humidity chamber at 25° C. and 94% RH for 2 hours. […]

[3] = Rehydration under ambient conditions followed by TGA; type: physicochemical; conditions: 8 mg sample in open TGA pan after heating to 100° C., ambient conditions (approximately 25° C. and 40% RH)
Method: A sample of product was heated to 100° C., held for 10 minutes, cooled to 30° C., held for 5 minutes and then re-heated to 250° C. […] To investigate whether the phosphate salt exists as a hydrate under ambient conditions that can be reversibly dehydrated at temperature in the presence of air, a series of TGA experiments were undertaken to clarify how quickly the material rehydrates under ambient conditions. A series of samples were taken to 100° C. then cooled to 25° C. under nitrogen using the TGA equipment. The samples were stored under ambient conditions (RT in air) for varying times and then the TGA experiment was re-run. As a comparison a heat/cool/heat experiment was undertaken under an inert atmosphere of nitrogen using the TGA; a sample was heated to 100° C., cooled to 25° C. and heated to 100° C. for a second time.
Within 30 minutes an 8 mg sample of product in an open TGA pan had fully rehydrated.

[4] = Polymorph interconversion of L-tartrate Forms D and E (slurry conversion); conditions: slurry: 1:1 Form D:Form E, 45° C., 48 hours, ethyl acetate, IPA, IMS or acetonitrile
Method: Form E of the L-Tartrate salt of compound (I) was also prepared by slurry conversion from four different solvents (ethyl acetate, IPA, IMS or acetonitrile). A 1:1 mixture of Form by weight of D: Form E L-Tartrate salt (200 mg total) was heated at 45° C. over 48 hours in 2 ml of solvent prior to filtration and analysis.

[5] = 24 h
Method: Thermodynamic Aqueous Solubility
The suspension was equilibrated at 25° C. for 24 hours then the pH was measured. The suspension was then filtered through a glass fibre C filter into a 96 well plate. The filtrate was then diluted by a factor of 101. Quantitation was by HPLC with reference to a standard solution of approximately 0.1 mg. ml^−1 in DMSO. Different volumes of the standard, diluted and undiluted sample solutions were injected.
The suspension was equilibrated at 25° C. for 24 hours. The suspension was then filtered through a filter into an HPLC vial. The filtrate was then diluted by an appropriate factor. Quantification was executed by HPLC with reference to a standard solution of 0.5 mg in 1 mL acetonitrile/water (1:1). Different volumes of the standard, diluted and undiluted sample solutions were injected.
The pH of the solution post solubility was pH 5.

[6] = Storage at 40° C./75% RH; type: physicochemical; conditions: for 40° C./75% RH, XRPD / 40° C./75% RH, appearance: 7 d; for 40° C./75% RH, observation or form change: storage time not stated
Method: A new XRPD pattern corresponding to the HBr salt was obtained upon storage of HBr Pattern 1 (Form J) at 40° C./75% relative humidity.
The sample was dried in a vacuum oven at 40° C./3 mbar for 18 h to yield the L-malate (Form R) as a white solid. NMR analysis of the sample of Form R formed during the storage of Form Q at 40° C./75% RH confirmed it to be a mono-malate salt.

[7] = system: cyclin dependent kinases; conditions: cited from earlier work
[8] = system: range of different cell lines; conditions: cited from earlier work

CC[C@H](Nc1nc(NCc2cnc(C)cc2C)c2ncn(C(C)C)c2n1)[C@@H](C)O [Form A]
hygroscopicity [1]: non-hygroscopic
mass increase (GVS) [1]: −0.8%
mass increase (GVS) ([1]; 11.254 mg sample): approximately 0.09 mg
XRPD of sample post GVS ([1]; GVS at 25° C.): no change

CC[C@H](Nc1nc(NCc2cnc(C)cc2C)c2ncn(C(C)C)c2n1)[C@@H](C)O [Form B]
hygroscopicity [1]: not to be hygroscopic
XRPD of sample post GVS ([1]; GVS at 25° C.): matched those acquired from product crystallised from ethanol
uptake of water above 80% RH ([1]; GVS at 25° C.): ~1.5 weight %
water lost upon taking to 0% RH ([1]; GVS at 25° C.): 0.5 weight %
XRPD of sample post GVS ([1]; GVS at 40° C.): matched those acquired from product crystallised from ethanol
uptake of water above 80% RH ([1]; GVS at 40° C.): ~2 weight %
water lost upon taking to 0% RH ([1]; GVS at 40° C.): ~2.6 weight %
XRPD after storage ([2]; 25° C. and 94% RH for 88 hours): matched those acquired for the phosphate salt crystallised from ethanol
appearance after storage ([2]; 25° C. and 94% RH for 88 hours): no deliquescence was observed
time to full rehydration [3]: ≤ 30 min

CC[C@H](Nc1nc(NCc2cnc(C)cc2C)c2ncn(C(C)C)c2n1)[C@@H](C)O [Form C]
hygroscopicity [1]: low hygroscopicity; also recorded: not hygroscopic
uptake of water between 60 and 90% RH ([1]; GVS at 25° C.): 0.5 % by weight
weight loss between 10 and 0% RH ([1]; GVS at 25° C.): 0.5%

CC[C@H](Nc1nc(NCc2cnc(C)cc2C)c2ncn(C(C)C)c2n1)[C@@H](C)O [Form D]
hydrate formation at high RH (GVS) [1]: no hydrate is formed
hygroscopicity [1]: hygroscopic only above 70% RH
XRPD after storage ([2]; 25° C. and 75% RH for 4 days): consistent with that of the original product
appearance after storage ([2]; 25° C. and 75% RH for 4 days): unchanged
XRPD after storage ([2]; 25° C. and 94% RH for 70 hours): some peaks corresponding to those in the pattern acquired for the original product, though a significant amorphous halo was also visible
appearance after storage ([2]; 25° C. and 94% RH for 70 hours): slightly tacky, though it had not deliquesced
relative stability of the L-tartrate polymorphs [4]: metastable

CC[C@H](Nc1nc(NCc2cnc(C)cc2C)c2ncn(C(C)C)c2n1)[C@@H](C)O [Form E]
Aqueous solubility [5]: 43.9 mg/mL
aqueous solubility [5]: 43.905 mg/mL (≈ 110 mM)
hygroscopicity [1]: only slightly hygroscopic

CC[C@H](Nc1nc(NCc2cnc(C)cc2C)c2ncn(C(C)C)c2n1)[C@@H](C)O [Form F]
hydrate formation at high RH (GVS) [1]: no hydrate is formed
hygroscopicity [1]: hygroscopic above only 70% RH
XRPD after storage ([2]; 25° C. and 75% RH for 70 hours): consistent with that of the original product
appearance after storage ([2]; 25° C. and 75% RH for 70 hours): unchanged
XRPD after storage ([2]; 25° C. and 94% RH for 3 days): same pattern as obtained for the initial product, but with a significant amorphous halo
appearance after storage ([2]; 25° C. and 94% RH for 3 days): slightly tacky, though it had not deliquesced

CC[C@H](Nc1nc(NCc2cnc(C)cc2C)c2ncn(C(C)C)c2n1)[C@@H](C)O [Form G]
hygroscopicity [1]: highly hygroscopic above 75% RH
XRPD after storage ([2]; 25° C. and 75% RH for 70 hours): consistent with that of the original product, but with a slightly larger amorphous halo
appearance after storage ([2]; 25° C. and 75% RH for 70 hours): slightly tacky
appearance after storage ([2]; 25° C. and 94% RH for 2 hours): Deliquescence

CC[C@H](Nc1nc(NCc2cnc(C)cc2C)c2ncn(C(C)C)c2n1)[C@@H](C)O [Form H]
AQ Solubility [5]: 75 mg/mL
40° C./75% RH, observation ([6]; 30 min): 30 min - Deliquescence

CC[C@H](Nc1nc(NCc2cnc(C)cc2C)c2ncn(C(C)C)c2n1)[C@@H](C)O [Form I]
AQ Solubility [5]: > 79 mg/mL
40° C./75% RH, XRPD [6]: conversion to HCl
40° C./75% RH, appearance [6]: Sticky solid
40° C./75% RH, observation or form change [6]: unstable; also recorded: conversion to HCl Pattern 1 (Form H)

CC[C@H](Nc1nc(NCc2cnc(C)cc2C)c2ncn(C(C)C)c2n1)[C@@H](C)O [Form J]
AQ Solubility [5]: > 30 mg/mL
40° C./75% RH, observation ([6]; 15 h): deliquescence and 15 h - Deliquescence
40° C./75% RH, XRPD [6]: conversion to a new
40° C./75% RH, appearance [6]: crystallisation was observed; also recorded: Sticky solid
40° C./75% RH, observation or form change [6]: conversion to a new Pattern—HBr Pattern 2 (Form K)

CC[C@H](Nc1nc(NCc2cnc(C)cc2C)c2ncn(C(C)C)c2n1)[C@@H](C)O [Form L]
AQ Solubility [5]: 137 mg/mL
Aqueous solubility [5]: ~140 mg/mL
hygroscopicity ([1]; listed as Mesylate Pattern 1): hygroscopic
observation on storage [2]: deliquescence
40° C./75% RH, observation ([6]; 15 h): 15 h - Deliquesced
40° C./75% RH, observation ([6]; 15 h, listed as Mesylate Pattern 1): deliquescence
40° C./75% RH, appearance [6]: 7 d - No change
40° C./75% RH, observation or form change ([6]; listed as mesylate salt): deliquescence

CC[C@H](Nc1nc(NCc2cnc(C)cc2C)c2ncn(C(C)C)c2n1)[C@@H](C)O [Form M]
AQ Solubility [5]: 73 mg/mL
hygroscopicity ([1]; listed as Maleate Pattern 1): hygroscopic above 75% RH
hygroscopicity ([1]; listed as maleate salt): hygroscopic above 40° C./70% RH
observation on storage [2]: deliquescence
40° C./75% RH, XRPD [6]: consistent with Maleate
40° C./75% RH, appearance [6]: Sticky solid
40° C./75% RH, observation or form change ([6]; listed as Maleate Pattern 1): sticky solid

CC[C@H](Nc1nc(NCc2cnc(C)cc2C)c2ncn(C(C)C)c2n1)[C@@H](C)O [Form P]
AQ Solubility [5]: 54 mg/mL
Aqueous solubility [5]: approximately 50 mg. ml^−1
hygroscopicity [1]: Non-hygroscopic, reversible uptake of
reversible uptake of water from 0 to 90% RH [1]: <0.4 wt % from 0 to 90% RH
reversible uptake of water from 0 to 90% RH ([1]; listed as Fumarate Pattern 1): less than 0.4 wt %
hygroscopicity ([1]; listed as Fumarate Pattern 1): non-hygroscopic
40° C./75% RH, appearance [6]: No visual change

CC[C@H](Nc1nc(NCc2cnc(C)cc2C)c2ncn(C(C)C)c2n1)[C@@H](C)O [Form Q]
AQ Solubility [5]: 92 mg/mL
hygroscopicity ([1]; listed as L-malate Pattern 1): hygroscopic
40° C./75% RH, observation ([6]; 15 h): 15 h - Deliquescence
40° C./75% RH, observation ([6]; 15 h, listed as L-malate Pattern 1): deliquescence
40° C./75% RH, observation ([6]; 72 h): crystallisation had occurred
40° C./75% RH, observation ([6]; 72 h, listed as L-malate Pattern 1): crystallisation of a new solid form
40° C./75% RH, appearance [6]: White solid
40° C./75% RH, observation ([6]; inside 2 h): deliquescence

CC[C@H](Nc1nc(NCc2cnc(C)cc2C)c2ncn(C(C)C)c2n1)[C@@H](C)O [Form R]
hygroscopicity [1]: less hygroscopic than the benzensulfonate and citrate salts
reversible uptake of water from 0 to 90% RH [1]: Reversible uptake of ~2.5 wt % H2O from 0 to 90% RH

CC[C@H](Nc1nc(NCc2cnc(C)cc2C)c2ncn(C(C)C)c2n1)[C@@H](C)O [compound (I)]
CDK inhibitory activity [7]: potent
potency in cellular toxicity studies [8]: surprisingly high potency
